What follows are molecules tested against T1, mouse NPY-Y5 receptors (mNPY-Y5) (Mus musculus, UniProt O70342) (assay: Radioligand competition binding (125I-PYY) on membranes of HEK293 cells expressing recombinant mouse NPY-Y5 receptor). Settings: displacement of 100 pM 125I-labeled PYY, 1 h at 22° C., read-out: NPY5 IC50.
T1 construct: The full-length cDNA which contains the mouse NPY-Y5 (mNPY-Y5) receptor coding was amplified from mouse brain cDNA; expressed in transfected cells
T1 sequence (O70342 1-466): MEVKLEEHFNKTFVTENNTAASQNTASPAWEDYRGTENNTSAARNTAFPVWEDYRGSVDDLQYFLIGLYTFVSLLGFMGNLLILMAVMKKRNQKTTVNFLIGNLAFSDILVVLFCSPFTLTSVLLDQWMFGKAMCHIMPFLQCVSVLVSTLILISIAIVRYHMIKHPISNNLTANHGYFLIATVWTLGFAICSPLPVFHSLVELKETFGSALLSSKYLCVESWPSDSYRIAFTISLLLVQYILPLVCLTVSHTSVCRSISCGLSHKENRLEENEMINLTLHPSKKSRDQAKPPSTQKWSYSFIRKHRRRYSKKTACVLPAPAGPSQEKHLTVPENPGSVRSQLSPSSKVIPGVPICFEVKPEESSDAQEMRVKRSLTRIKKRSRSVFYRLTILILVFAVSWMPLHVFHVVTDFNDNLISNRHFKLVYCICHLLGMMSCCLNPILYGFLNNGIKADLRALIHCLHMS
Text: The full-length cDNA which contains the mouse NPY-Y5 (mNPY-Y5) receptor coding was amplified from mouse brain cDNA using specific primers, which were custom-made on the basis of published sequences, and employing Pfu DNA polymerase (Stratagene). The amplification product was subcloned into a mammalian expression vector pcDNA3 using EcoRI and XhoI restriction sites. Positive clones were sequenced; one clone, which contained the published sequence, was selected for preparing stable cell clones.
Human embryonic kidney 293 (HEK293) cells were transfected with 10 μg of mNPY5 DNA using Lipofectamine reagent (Gibco BRL) in accordance with the manufacturer's instructions. Two days after the transfection, the geneticin selection (1 mg/ml) was initiated and several stable clones were isolated. One of the clones was used for further pharmacological characterization.
Human embryonic kidney cells (HEK293) which express recombinant mouse NPY-Y5 receptors (mNPY-Y5) were disrupted by being frozen/thawed three times in hypotonic Tris buffer (5 mM, pH 7.4, 1 mM MgCl2), after which they were homogenized and centrifuged at 72 000 G for 15 minutes. The precipitate was washed twice with Tris buffer (pH 7.4) containing 25 mM MgCl2, 250 mM sucrose, 0.1 mM phenylmethylsulfonyl fluoride and 0.1 mM 1,10-phenanthroline, then resuspended in the same buffer and stored in aliquots at −80° C. The protein was determined by the Lowry method using bovine serum albumin (BSA) as the standard.
The competition binding analysis was carried out in 250 μl of 25 mM Hepes buffer (pH 7.4, 2.5 mM CaCl2, 1 mM MgCl2, 1% bovine serum albumin and 0.01% sodium azide) which 5 μg of protein, 100 pM ^125I-labeled peptide YY (PYY) and 10 μl of a DMSO solution containing increasing quantities of DMSO solution containing unlabeled test compound. After a one-hour incubation at 22° C., the bound ligand was separated from the unbound ligand by means of filtration through a glass fiber filter. Nonspecific binding was determined in the presence of 1 μM unlabeled PYY. Specific binding is defined as the difference between total binding and nonspecific binding. An IC50 value is defined as the concentration of the antagonist which displaces 50% of the ^125I-labeled […]. This concentration is determined by linear regression analysis following logit/log transformation of the binding values.

SMILES	IC50
CCn1c2ccccc2c2cc(NC(=O)C3CC(=O)N(CC(O)c4ccccc4)C3)ccc21 (racemic) [rac. N-(9-Ethyl-9H-carbazol-3-yl)-1-(2-hydroxy-2-phenylethyl)-5-oxopyrrolidine-3-carboxamide]	8 nM
CCn1c2ccccc2c2cc(NC(=O)C3CC(=O)N(Cc4ccc(OC)cc4OC)C3)ccc21 (racemic) [rac. N-(9-Ethyl-9H-carbazol-3-yl)-1-(2,4-dimethoxybenzyl)-5-oxopyrrolidine-3-carboxamide]	20 nM
CCN(c1ccc(NC(=O)C2CC(=O)N(CCc3ccccn3)C2)cc1)c1nc(C)cc(C)n1 (racemic) [rac. N-{4-[(4,6-Dimethylpyrimidin-2-yl)ethylamino]phenyl}-5-oxo-1-(2-pyridin-2-ylethyl)pyrrolidine-3-carboxamide]	24 nM
Cc1ccc(C)c(N2CC(C(=O)Nc3ccc(N(C)c4nc(C)cc(C)n4)cc3)CC2=O)c1 (racemic) [rac. N-{4-[(4,6-Dimethylpyrimidin-2-yl)methylamino]phenyl}-1-(2,5-dimethylphenyl)-5-oxopyrrolidine-3-carboxamide]	20 nM
CC(C)c1ccccc1N1CC(C(=O)Nc2ccc(N(CC3CC3)c3ccccc3)cc2)CC1=O (racemic) [rac. N-[4-(Cyclopropylmethylphenylamino)phenyl]-1-(2-isopropylphenyl)-5-oxopyrrolidine-3-carboxamide]	47 nM
CCN(c1ccc(NC(=O)C2CC(=O)N(c3cc(C)ccc3C)C2)cc1)C(C)C (racemic) [rac. N-[4-(Ethylisopropylamino)phenyl]-1-(2,5-dimethylphenyl)-5-oxopyrrolidine-3-carboxamide]	10 nM
CCN(CC)c1ccc(NC(=O)C2CC(=O)N(c3cc(C)ccc3C)C2)cc1 (racemic) [rac. N-(4-Diethylaminophenyl)-1-(2,5-dimethylphenyl)-5-oxopyrrolidine-3-carboxamide]	9 nM
CCn1c2ccccc2c2cc(NC(=O)C3CC(=O)N(Cc4ccco4)C3)ccc21 (racemic) [rac. N-(9-Ethyl-9H-carbazol-3-yl)-1-furan-2-ylmethyl-5-oxopyrrolidine-3-carboxamide]	10 nM
CCOC(=O)CN(c1ccccc1)c1ccc(NC(=O)C2CC(=O)N(c3cc(C)ccc3C)C2)cc1 (racemic) [rac. Ethyl [(4-{[1-(2,5-dimethylphenyl)-5-oxopyrrolidine-3-carbonyl]amino}phenyl)phenylamino]acetate]	13 nM
Cc1cc(C)nc(N(C)c2ccc(NC(=O)C3CC(=O)N(c4ccccc4C(C)C)C3)cc2)n1 (racemic) [rac. N-{4-[(4,6-Dimethylpyrimidin-2-yl)methylamino]phenyl}-1-(2-isopropylphenyl)-5-oxopyrrolidine-3-carboxamide]	31 nM
Cc1cc(C)nc(Nc2ccc(NC(=O)C3CC(=O)N(C4Cc5ccccc5C4)C3)cc2)n1 (racemic) [rac. N-[4-(4,6-Dimethylpyrimidin-2-ylamino)phenyl]-1-indan-2-yl-5-oxopyrrolidine-3-carboxamide]	30 nM
CCn1c2ccccc2c2cc(NC(=O)C3CC(=O)N(c4ccc(C(C)C)cc4)C3)ccc21 (racemic) [rac. N-(9-Ethyl-9H-carbazol-3-yl)-1-(4-isopropylphenyl)-5-oxopyrrolidine-3-carboxamide]	30 nM
CCN(c1ccc(NC(=O)C2CC(=O)N(CC(O)c3ccccc3)C2)cc1)c1nc(C)cc(C)n1 (racemic) [rac. N-{4-[(4,6-Dimethylpyrimidin-2-yl)ethylamino]phenyl}-1-(2-hydroxy-2-phenylethyl)-5-oxo-pyrrolidine-3-carboxamide]	33 nM
CCN(c1ccc(NC(=O)C2CC(=O)N(c3cc(OC)ccc3C)C2)cc1)c1nc(C)cc(C)n1 (racemic) [rac. N-{4-[(4,6-Dimethylpyrimidin-2-yl)ethylamino]phenyl}-1-(5-methoxy-2-methylphenyl)-5-oxopyrrolidine-3-carboxamide]	15 nM
COc1ccc(C)c(N2CC(C(=O)Nc3ccc(Nc4nc(C)cc(C)n4)cc3)CC2=O)c1 (racemic) [rac. N-[4-(4,6-Dimethylpyrimidin-2-ylamino)phenyl]-1-(5-methoxy-2-methylphenyl)-5-oxopyrrolidine-3-carboxamide]	26 nM
CCn1c2ccccc2c2cc(NC(=O)C3CC(=O)N(Cc4ccccc4Cl)C3)ccc21 (racemic) [rac. N-(9-Ethyl-9H-carbazol-3-yl)-1-(2-chlorobenzyl)-5-oxopyrrolidine-3-carboxamide]	20 nM
Cc1ccc(N2CC(C(=O)Nc3ccc(N(C)c4nc(C)cc(C)n4)cc3)CC2=O)cc1 (racemic) [rac. N-{4-[(4,6-Dimethylpyrimidin-2-yl)methylamino]phenyl}-5-oxo-1-p-tolylpyrrolidine-3-carboxamide]	22 nM

Results, then the molecule that gave them:

IC50	SMILES
46 nM	CCOC(=O)CN(c1ccccc1)c1ccc(NC(=O)C2CC(=O)N(c3cc(OC)ccc3C)C2)cc1 (racemic) [rac. Ethyl [(4-{[1-(5-methoxy-2-methylphenyl)-5-oxopyrrolidine-3-carbonyl]amino}phenyl)phenylamino]acetate]
22 nM	Cc1ccc(C)c(N2CC(C(=O)Nc3ccc(N(c4ccccc4)C(C)C)cc3)CC2=O)c1 (racemic) [rac. N-[4-(Isopropylphenylamino)phenyl]-1-(2,5-dimethylphenyl)-5-oxopyrrolidine-3-carboxamide]
25 nM	Cc1cc(C)nc(Nc2ccc(NC(=O)C3CC(=O)N(c4ccccc4C(C)C)C3)cc2)n1 (racemic) [rac. N-[4-(4,6-Dimethylpyrimidin-2-ylamino)phenyl]-1-(2-isopropylphenyl)-5-oxopyrrolidine-3-carboxamide]
21 nM	CCn1c2ccccc2c2cc(NC(=O)C3CC(=O)N(c4ccccc4)C3)ccc21 (racemic) [rac. N-(9-Ethyl-9H-carbazol-3-yl)-5-oxo-1-phenylpyrrolidine-3-carboxamide]
41 nM	CC(C)c1ccccc1N1CC(C(=O)Nc2ccc(Nc3ccccc3)cc2)CC1=O (racemic) [rac. N-(4-Phenylaminophenyl)-1-(2-isopropylphenyl)-5-oxopyrrolidine-3-carboxamide]
46 nM	CCN(c1ccc(NC(=O)C2CC(=O)N(c3ccccc3C(C)C)C2)cc1)c1nc(C)cc(C)n1 (racemic) [rac. N-{4-[(4,6-Dimethylpyrimidin-2-yl)ethylamino]phenyl}-1-(2-isopropylphenyl)-5-oxopyrrolidine-3-carboxamide]
30 nM	CCn1c2ccccc2c2cc(NC(=O)C3CC(=O)N(c4cccc(F)c4)C3)ccc21 (racemic) [rac. N-(9-Ethyl-9H-carbazol-3-yl)-1-(3-fluorophenyl)-5-oxopyrrolidine-3-carboxamide]
45 nM	Cc1ccc(C)c(N2CC(C(=O)Nc3ccc(C(C)C)cc3)CC2=O)c1 (racemic) [rac. N-(4-Isopropylphenyl)-1-(2,5-dimethylphenyl)-5-oxopyrrolidine-3-carboxamide]
20 nM	CCn1c2ccccc2c2cc(NC(=O)C3CC(=O)N(c4cccc(OC)c4)C3)ccc21 (racemic) [rac. N-(9-Ethyl-9H-carbazol-3-yl)-1-(3-methoxyphenyl)-5-oxopyrrolidine-3-carboxamide]

— patent publication US7067549B2, “Pyrrolidone carboxamides” (Actelion Pharmaceuticals AG, priority 2001, dated 2006)
